Results: PMC10819809 (Microorganisms, 2024)
≈ marks a conversion by molar mass, not a printed value. Square brackets hold non-standard residues; d marks the D form. Peptide text beside a SMILES is read from it.

System: multi-drug resistant (MDR) strain (MDR-TB, clinical isolate)
Details: microdilution broth, 96-well, 2 × 10^5 CFU/mL, 37 °C 14 days, resazurin 48 h; conducted twice with three technical replicates each

| SMILES | MIC in µg/mL, MDR-TB [µg/mL] |
| --- | --- |
| CC[C@@H](C)[C@@H](NC(=O)[C@@H](CCCCN)NC(=O)[C@H](N)Cc1c[nH]c2ccccc12)C(=O)N[C@@H](C(=O)N[C@H](Cc1ccccc1)C(=O)N[C@H](CC(=O)O)C(=O)N[C@H](Cc1c[nH]c2ccccc12)C(=O)N[C@H](CCCNC(=N)N)C(=O)N[C@H](CCCNC(=N)N)C(N)=O)C(C)C [wkivfdwrr] (H-[dW][dK][dI][dV][dF][dD][dW][dR][dR]-NH2) | 20 (≈ 15.3 µM) |
| CC[C@@H](C)[C@@H](NC(=O)[C@@H](CCCCN)NC(=O)[C@H](N)Cc1c[nH]c2ccccc12)C(=O)N[C@@H](C(=O)N[C@H](Cc1ccccc1)C(=O)N[C@H](Cc1c[nH]c2ccccc12)C(=O)N[C@H](Cc1c[nH]c2ccccc12)C(=O)N[C@H](CCCNC(=N)N)C(=O)N[C@H](CCCNC(=N)N)C(N)=O)C(C)C [peptide 14D] (H-[dW][dK][dI][dV][dF][dW][dW][dR][dR]-NH2) | >50 |
| CC[C@@H](C)[C@@H](NC(=O)[C@@H](CCCCN)NC(=O)[C@H](N)Cc1c[nH]c2ccccc12)C(=O)N[C@H](CO)C(=O)N[C@H](Cc1ccccc1)C(=O)N[C@H](Cc1c[nH]c2ccccc12)C(=O)N[C@H](Cc1c[nH]c2ccccc12)C(=O)N[C@H](CCCNC(=N)N)C(=O)N[C@H](CCCNC(=N)N)C(N)=O [wkisfwwrr] (H-[dW][dK][dI][dS][dF][dW][dW][dR][dR]-NH2; N-terminus assumed) | 20 (≈ 14.7 µM) |
| CC[C@@H](C)[C@@H](NC(=O)[C@@H](CCCCN)NC(=O)[C@H](N)Cc1c[nH]c2ccccc12)C(=O)N[C@@H](C(=O)N[C@H](Cc1ccccc1)C(=O)NCC(=O)N[C@H](Cc1c[nH]c2ccccc12)C(=O)N[C@H](CCCNC(=N)N)C(=O)N[C@H](CCCNC(=N)N)C(N)=O)C(C)C [wkivfGwrr] (H-[dW][dK][dI][dV][dF]G[dW][dR][dR]-NH2; N-terminus assumed) | 20 (≈ 16 µM) |
| CC[C@@H](C)[C@@H](NC(=O)[C@@H](CCCCN)NC(=O)[C@H](N)Cc1c[nH]c2ccccc12)C(=O)N[C@@H](C(=O)N[C@H](Cc1ccccc1)C(=O)N[C@H](CC(N)=O)C(=O)N[C@H](Cc1c[nH]c2ccccc12)C(=O)N[C@H](CCCNC(=N)N)C(=O)N[C@H](CCCNC(=N)N)C(N)=O)C(C)C [wkivfnwrr] (H-[dW][dK][dI][dV][dF][dN][dW][dR][dR]-NH2; N-terminus assumed) | 20 (≈ 15.3 µM) |
